Details: 323.14 K, Liquid, Vibrating tube method

CCCCCCCCCC [decane]
Details | mass density [kg/m3]
21395 kPa | 724.8
21420 kPa | 724.9
21444 kPa | 724.9
21473 kPa | 724.8
21501 kPa | 724.8
21526 kPa | 725
21647 kPa | 725
22710 kPa | 725.7
22733 kPa | 725.8
22768 kPa | 725.8
22800 kPa | 725.9
22832 kPa | 725.9
22860 kPa | 725.9
22884 kPa | 725.9
22916 kPa | 725.8
22948 kPa | 726
22977 kPa | 726.1
23013 kPa | 726
23034 kPa | 726.1
23071 kPa | 726.1
23103 kPa | 726.1
23124 kPa | 726.1
23149 kPa | 726.2
23170 kPa | 726.2
23191 kPa | 726.2
23219 kPa | 726.2
23256 kPa | 726.1
23294 kPa | 726.2
23332 kPa | 726.3
23357 kPa | 726.2
23391 kPa | 726.2
23412 kPa | 726.2
23442 kPa | 726.3
23475 kPa | 726.4
23509 kPa | 726.3
23539 kPa | 726.3
23578 kPa | 726.5
23612 kPa | 726.3
23710 kPa | 726.6
23736 kPa | 726.5
23762 kPa | 726.5
23806 kPa | 726.6
23832 kPa | 726.7
23854 kPa | 726.6
23881 kPa | 726.6
23912 kPa | 726.7
23938 kPa | 726.7
23970 kPa | 726.7
23996 kPa | 726.7
24633 kPa | 727.3
24707 kPa | 727.3
24732 kPa | 727.3
24765 kPa | 727.4
24799 kPa | 727.2
24832 kPa | 727.4
24861 kPa | 727.4
24899 kPa | 727.4
24942 kPa | 727.4
24979 kPa | 727.4
25000 kPa | 727.5
25022 kPa | 727.4
25061 kPa | 727.6
25103 kPa | 727.6
25129 kPa | 727.5
25160 kPa | 727.6
25190 kPa | 727.7
25216 kPa | 727.6
25251 kPa | 727.7
25291 kPa | 727.6
25325 kPa | 727.7
25361 kPa | 727.8
25383 kPa | 727.8
25422 kPa | 727.7
25458 kPa | 727.8
25493 kPa | 727.9
25521 kPa | 727.8
25556 kPa | 727.8
25593 kPa | 727.9
25624 kPa | 727.9
25670 kPa | 727.9
25706 kPa | 728
25742 kPa | 727.9
25783 kPa | 728
25828 kPa | 728
26192 kPa | 728.4
26343 kPa | 728.4
26723 kPa | 728.6
26758 kPa | 728.8
26793 kPa | 728.7
26842 kPa | 728.8
26872 kPa | 728.8
26912 kPa | 728.8
26952 kPa | 728.8
26992 kPa | 728.9
27043 kPa | 729
27362 kPa | 729.1
27409 kPa | 729.2
27440 kPa | 729.2
27472 kPa | 729.2
27524 kPa | 729.4
27568 kPa | 729.3
27605 kPa | 729.3
27657 kPa | 729.4
27684 kPa | 729.3
27758 kPa | 729.5
27796 kPa | 729.5
27882 kPa | 729.5
27920 kPa | 729.5
27958 kPa | 729.5
27997 kPa | 729.6
28042 kPa | 729.7
28096 kPa | 729.7
28135 kPa | 729.7
28185 kPa | 729.7
28230 kPa | 729.8
28317 kPa | 729.9
28358 kPa | 729.8
28393 kPa | 729.7
28457 kPa | 730.1
28496 kPa | 730
28541 kPa | 730
28571 kPa | 730.1
28605 kPa | 730
28640 kPa | 730.1
28675 kPa | 730.1
28714 kPa | 730.1
28744 kPa | 730.2
28779 kPa | 730.1
28819 kPa | 730.2
28844 kPa | 730.2
28887 kPa | 730.3
28913 kPa | 730.3
28938 kPa | 730.2
28968 kPa | 730.3
28999 kPa | 730.4
29030 kPa | 730.4
29065 kPa | 730.4
